Results from patent publication US20230255953A1, “USE OF ROLUPERIDONE IN PREVENTING RELAPSE IN SCHIZOPHRENIA PATIENTS” (Minerva Neurosciences, Inc., priority 2022, published 2023).

How the values were obtained:
sigma2 = sigma2 (Homo sapiens, UniProt Q5BJF2); conditions: background statement; cited from earlier work
[1] = tested on: patients with negative symptoms of schizophrenia; assay: Study #1 (MIN-101C03): safety and tolerability (TEAEs, QTcF); type: in vivo, human; conditions: for Patients with QTcF prolongation >500 msec and change from Baseline in QTcF >60 msec: DB period
Excerpt: (§1) Phase 2b Study #1 (also referred to herein as “MIN-101C03”) was a Phase 2b, double-blind (“DB”), placebo-controlled, randomized, multicenter 12-week study to evaluate the efficacy, safety, and tolerability of Roluperidone in patients ≥18 years to ≤60 years with negative symptoms of schizophrenia, followed by a 24-week open-label (“OL”) extension. The primary objective of the study was to evaluate the efficacy of Roluperidone compared to placebo in improving the negative symptoms of schizophrenia as measured by the change from Baseline in the PANSS negative factor score of the PSM (“PANSS PSM”) over 12 weeks of treatment.
(§2) The study consisted of a pretreatment screening period of up to 28 days (including washout), a 12-week, DB, placebo-controlled period, and a 24-week OL period. Eligible patients (who were symptomatically stable for at least 3 months and had scores of at least 20 on the PANSS negative subscale score) were randomized in a 1:1:1 ratio to receive oral Roluperidone (a modified-release, “MR”, formulation) 32 mg QD, Roluperidone 64 mg QD, or placebo for 12 weeks. […] During the 24-week, OL treatment extension period, patients who were initially randomized to Roluperidone 32 mg or 64 mg continued on the same dose, while patients who were initially randomized to placebo crossed over to Roluperidone 32 mg or 64 mg in a 1:1 ratio.
Clinically significant QTcF prolongation >500 msec and change from Baseline in QTcF>60 msec were reported in 2 patients of the 64 mg Roluperidone group, and in no patients in the 32 mg Roluperidone group or in the placebo group during the DB period of the study. The mean changes across all vital sign parameters were small from Baseline to the respective study visits in the DB period of the study.

muscarinic receptors = conditions: background statement; cited from earlier work
[2] = tested on: patients with negative symptoms of schizophrenia; assay: Study #1 (MIN-101C03): Brief Assessment of Cognition in Schizophrenia; type: in vivo, human; design: Change from Baseline LS Mean: Brief Assessment of Cognition in Schizophrenia Total Score / Change from Baseline LS Mean: Brief Assessment of Cognition in Schizophrenia Total Verbal Fluency: unit not given here; conditions: Week 12 DB, ITT
Excerpt: as §1, §2

[3] = tested on: patients with negative symptoms of schizophrenia; assay: Study #1 (MIN-101C03): Personal and Social Performance (PSP); type: in vivo, human; conditions: Week 12 DB; for Change from Baseline LS Mean: PSP Disturbing & Aggressive Behavior / Change from Baseline LS Mean: PSP Personal and Social Relationships / Change from Baseline LS Mean: PSP Self-care / Change from Baseline LS Mean: PSP Socially Useful Activities / Change from Baseline LS Mean: PSP Total Score (mapped from the 4 domains) / Effect Size vs Placebo: PSP Disturbing & Aggressive Behavior / Effect Size vs Placebo: PSP Personal and Social Relationships / Effect Size vs Placebo: PSP Self-care / Effect Size vs Placebo: PSP Socially Useful Activities / Effect Size vs Placebo: PSP Total Score (mapped from the 4 domains): ITT
Excerpt: The PSP is a validated clinician-rated scale intended to reflect real-life situations that measures personal and social functioning in 4 domains: (a) socially useful activities, (b) personal and social relationships, (c) self-care, and (d) disturbing and aggressive behaviors. The score is based on the assessment of a patient's performance in the 4 domains. The PSP Total score is a single measurement of functioning ranging from 1 to 100, where a higher score represents better functioning. A score of 91 to 100 indicates excellent functioning in all 4 main areas; the patient is held in high consideration for their good qualities, copes adequately with life problems, and is involved in a wide range of interests and activities. A score of 1 to 10 indicates a lack of autonomy in basic functioning with extreme behaviors but without survival risk (score 6 to 10) or with survival risk (score 1 to 5). […] Review of the relevant scientific literature and the analysis of the psychometric properties of the 4 domains that result in the generation of the PSP Total score were supportive of the appropriateness and cross-cultural applicability of the use of the PSP in drug development for the indication of negative symptoms of schizophrenia The PSP was assessed at the timepoints described in Table 6. The changes from Baseline in the PSP Total score and individual domain scores after 12 weeks of treatment were exploratory efficacy endpoints in Study MIN-101C03, and the Total score was the key secondary efficacy endpoint and the PSP domain scores were exploratory endpoints in Study MIN-101C07.
as §1, §2

Chain of sigma2 (Q5BJF2 whole entry): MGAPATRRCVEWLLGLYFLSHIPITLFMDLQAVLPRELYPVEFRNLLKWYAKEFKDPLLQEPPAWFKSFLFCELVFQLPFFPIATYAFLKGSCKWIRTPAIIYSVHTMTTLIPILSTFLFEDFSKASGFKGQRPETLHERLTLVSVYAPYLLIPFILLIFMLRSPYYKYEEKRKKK

1H-Isoindol-1-one,2-[ [1-[2-(4-fluorophenyl)-2-oxoethyl]-4-piperidinyl]methyl]-2,3-dihydro-, hydrochloride, hydrate (1:1:2) [Roluperidone]
Antagonistic activity (sigma2): antagonistic activities | Patients with QTcF prolongation >500 msec and change from Baseline in QTcF >60 msec ([1]; 32 mg): no patients | Patients with QTcF prolongation >500 msec and change from Baseline in QTcF >60 msec ([1]; 64 mg): 2 patients | Tolerability (TEAEs, SAEs) ([1]; 32 and 64 mg, up to 36 weeks of treatment): generally well tolerated | QTcF prolongation >450 msec and QTcF increases relative to baseline of ≥30 msec ([1]; Roluperidone groups): dose-dependent manner | Affinity (muscarinic receptors): very low or no affinity | Change from Baseline LS Mean: Brief Assessment of Cognition in Schizophrenia Total Score ([2]; 32 mg QD): 23.8 | Change from Baseline LS Mean: Brief Assessment of Cognition in Schizophrenia Total Verbal Fluency ([2]; 32 mg QD): 5.76 | Effect Size vs Placebo: Brief Assessment of Cognition in Schizophrenia Total Score ([2]; 32 mg QD): 0.43 | Effect Size vs Placebo: Total Verbal Fluency ([2]; 32 mg QD): 0.51 | Change from Baseline LS Mean: Brief Assessment of Cognition in Schizophrenia Total Score ([2]; 64 mg QD): 14.9 | Change from Baseline LS Mean: Brief Assessment of Cognition in Schizophrenia Total Verbal Fluency ([2]; 64 mg QD): 4.37 | Effect Size vs Placebo: Brief Assessment of Cognition in Schizophrenia Total Score ([2]; 64 mg QD): 0.12 | Effect Size vs Placebo: Total Verbal Fluency ([2]; 64 mg QD): 0.36 | Effect Size vs Placebo: 7-Point improvement in PSP Total Score responders ([3]; 32 mg QD): 0.05 | Effect Size vs Placebo: 10-Point improvement in PSP Total Score responders ([3]; 32 mg QD): 0.05 | Number of Patients with 7-Point improvement in PSP Total Score at Week 12 ([3]; 32 mg QD): 17/50 | Number of Patients with 10-Point improvement in PSP Total Score at Week 12 ([3]; 32 mg QD): 17/50 | Patients with 7-Point improvement in PSP Total Score at Week 12 (%) ([3]; 32 mg QD): (34%) | Patients with 10-Point improvement in PSP Total Score at Week 12 (%) ([3]; 32 mg QD): (34%) | Change from Baseline LS Mean: PSP Disturbing & Aggressive Behavior ([3]; 32 mg QD): −0.15 | Change from Baseline LS Mean: PSP Personal and Social Relationships ([3]; 32 mg QD): −0.22 | Change from Baseline LS Mean: PSP Self-care ([3]; 32 mg QD): −0.37 | Change from Baseline LS Mean: PSP Socially Useful Activities ([3]; 32 mg QD): −0.41 | Change from Baseline LS Mean: PSP Total Score (mapped from the 4 domains) ([3]; 32 mg QD): 1.77 | Effect Size vs Placebo: PSP Disturbing & Aggressive Behavior ([3]; 32 mg QD): 0.36 | Effect Size vs Placebo: PSP Personal and Social Relationships ([3]; 32 mg QD): 0.02 | Effect Size vs Placebo: PSP Self-care ([3]; 32 mg QD): 0.27 | Effect Size vs Placebo: PSP Socially Useful Activities ([3]; 32 mg QD): 0.14 | Effect Size vs Placebo: PSP Total Score (mapped from the 4 domains) ([3]; 32 mg QD): −0.01 | Effect Size vs Placebo: 7-Point improvement in PSP Total Score responders ([3]; 64 mg QD): 0.17 | Effect Size vs Placebo: 10-Point improvement in PSP Total Score responders ([3]; 64 mg QD): 0.17 | Number of Patients with 7-Point improvement in PSP Total Score at Week 12 ([3]; 64 mg QD): 26/54 | Number of Patients with 10-Point improvement in PSP Total Score at Week 12 ([3]; 64 mg QD): 26/54 | Change from Baseline LS Mean: PSP Disturbing & Aggressive Behavior ([3]; 64 mg QD): −0.24 | Change from Baseline LS Mean: PSP Personal and Social Relationships ([3]; 64 mg QD): −0.56 | Change from Baseline LS Mean: PSP Self-care ([3]; 64 mg QD): −0.48 | Change from Baseline LS Mean: PSP Socially Useful Activities ([3]; 64 mg QD): −0.57 | Change from Baseline LS Mean: PSP Total Score (mapped from the 4 domains) ([3]; 64 mg QD): 8.52 | Effect Size vs Placebo: PSP Disturbing & Aggressive Behavior ([3]; 64 mg QD): 0.51 | Effect Size vs Placebo: PSP Personal and Social Relationships ([3]; 64 mg QD): 0.53 | Effect Size vs Placebo: PSP Self-care ([3]; 64 mg QD): 0.46 | Effect Size vs Placebo: PSP Socially Useful Activities ([3]; 64 mg QD): 0.38 | Effect Size vs Placebo: PSP Total Score (mapped from the 4 domains) ([3]; 64 mg QD): 0.56
